This is an account of results in patent US20080161288A1, “COMPOUNDS” (Pfizer Inc., priority 2006, published 2008).

The target of assay [1] is T1, porcine beta-2 adrenoceptor (Sus scrofa, UniProt Q28997).
T1 construct: expressed in transfected cells; host or cells: CHO cells
Kind of assay: cAMP assay in CHO cells transfected with the porcine beta-2 adrenoceptor. It is filed as cell-based. Particulars: cAMP (DiscoveRx Hit Hunter cAMP II) in CHO cells transfected with porcine beta-2 adrenoceptor, 30 minutes with compound, 0.5 mM IBMX. On the procedure:
(§1) CHO cells transfected with the bovine or porcine beta-2 adrenceptors were maintained in culture in DMEM/HAMS F12+10% FBS+2 mM glutamine+500 μg/ml geneticin (for the porcine receptor the medium was supplement with 1.5 mM HEPES) at 37° C. with a 5% CO2 atmosphere.
(§2) Cells were plated into 96 well viewplates in medium and incubated overnight at 37° C. with a 5% CO2 atmosphere. The cells were pre-incubated with 0.5 mM IBMX in PBS for 30 minutes prior to incubation with increasing concentrations of experimental compound (5×10^−12 to 10^−5 M) for 30 minutes at 37° C. with a 5% CO2 atmosphere. At the end of the incubation time the compound was removed and the cells assayed for cAMP using the DiscoveRx Hit Hunter cAMP II™ assay kit.
(§3) Duplicate samples were run for each experimental compound and the data generated was analysed using EC50 analysis software in Graphpad Prism.
In general terms: cAMP levels reflect the balance of adenylyl cyclase and phosphodiesterase activity.

Assay [2] deals with T2, bovine beta-2 adrenoceptor (Bos taurus, UniProt Q28044).
T2 construct: expressed in transfected cells; host or cells: CHO cells
T2 sequence (Q28044 whole entry): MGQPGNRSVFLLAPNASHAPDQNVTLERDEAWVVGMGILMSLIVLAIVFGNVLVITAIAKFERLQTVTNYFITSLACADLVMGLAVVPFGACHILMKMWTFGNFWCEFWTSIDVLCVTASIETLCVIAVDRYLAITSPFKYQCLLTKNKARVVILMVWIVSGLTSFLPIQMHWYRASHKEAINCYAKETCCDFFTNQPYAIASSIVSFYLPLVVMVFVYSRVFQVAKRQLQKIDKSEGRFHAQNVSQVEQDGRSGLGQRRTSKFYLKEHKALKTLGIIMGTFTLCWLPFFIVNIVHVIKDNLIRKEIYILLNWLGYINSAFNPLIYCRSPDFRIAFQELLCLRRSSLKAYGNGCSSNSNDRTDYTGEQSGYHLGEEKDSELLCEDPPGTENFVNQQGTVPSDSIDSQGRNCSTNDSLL
Description: cAMP assay in CHO cells transfected with the bovine beta-2 adrenoceptor. The format is cell-based. Particulars: cAMP (DiscoveRx Hit Hunter cAMP II) in CHO cells transfected with bovine beta-2 adrenoceptor, 30 minutes with compound, 0.5 mM IBMX. On the procedure:
as §1, §2, §3

T1 sequence (Q28997 whole entry): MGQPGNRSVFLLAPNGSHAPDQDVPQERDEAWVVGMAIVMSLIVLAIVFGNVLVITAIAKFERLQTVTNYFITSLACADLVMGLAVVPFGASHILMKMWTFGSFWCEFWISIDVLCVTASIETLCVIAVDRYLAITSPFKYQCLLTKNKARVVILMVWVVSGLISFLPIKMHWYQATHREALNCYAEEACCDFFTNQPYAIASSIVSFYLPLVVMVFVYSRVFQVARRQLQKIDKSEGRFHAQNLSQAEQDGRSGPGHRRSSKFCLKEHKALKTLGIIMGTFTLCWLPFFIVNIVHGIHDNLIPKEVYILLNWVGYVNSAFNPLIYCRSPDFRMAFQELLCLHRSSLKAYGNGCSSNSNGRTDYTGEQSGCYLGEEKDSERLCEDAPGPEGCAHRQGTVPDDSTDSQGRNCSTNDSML

One may read the EC50 as the concentration giving half of the maximal effect. As for `CC(CCc1ccc(OCC2CC2)cc1)N[C@@H]1CCn2c(=O)[nH]c3cccc(c32)[C@H]1O` (mixture of isomers) [Example 1a, 6-({3-[4-(Cyclopropylmethoxy)phenyl]-1-methylpropyl}amino)-7-hydroxy-4,5,6,7-tetrahydroimidazo[4,5,1-jk][1]benzazepin-2(1H)-one], the half-maximal effective concentration (EC50) in assay [1] amounted to 5.9 nM; in assay [2], 14 nM.

For `CC(CCc1ccc(OCC2CC2)cc1)N[C@@H]1CCn2c(=O)[nH]c3cccc(c32)[C@H]1O` (mixture of isomers) [Example 1c, 6-({3-[4-(Cyclopropylmethoxy)phenyl]-1-methylpropyl}amino)-7-hydroxy-4,5,6,7-tetrahydroimidazo[4,5,1-jk][1]benzazepin-2(1H)-one], the EC50 in assay [1] stood at 4.8 nM; in assay [2], 12.2 nM. `CC(CCc1ccccc1O)N[C@@H]1CCn2c(=O)[nH]c3cccc(c32)[C@H]1O` (mixture of isomers) [Example 6a, 7-Hydroxy-6-{[3-(2-hydroxyphenyl)-1-methylpropyl]amino}-4,5,6,7-tetrahydroimidazo[4,5,1-jk][1]benzazepin-2(1H)-one]: the EC50 in assay [1] and in assay [2] was 1.5 nM each time. For the molecule `CC(CCc1ccccc1O)N[C@@H]1CCn2c(=O)[nH]c3cccc(c32)[C@H]1O` (mixture of isomers) [Example 6b, 7-Hydroxy-6-{[3-(2-hydroxyphenyl)-1-methylpropyl]amino}-4,5,6,7-tetrahydroimidazo[4,5,1-jk][1]benzazepin-2(1H)-one], the 50% effective concentration (EC50) in assay [1] is 1.4 nM; in assay [2], 2 nM.

`CC(CCc1cc(F)cc(F)c1O)N[C@@H]1CCn2c(=O)[nH]c3cccc(c32)[C@H]1O` (mixture of isomers) [Example 10b, 6-{[3-(3,5-Difluoro-2-hydroxyphenyl)-1-methylpropyl]amino}-7-hydroxy-4,5,6,7-tetrahydroimidazo[4,5,1-jk][1]benzazepin-2(1H)-one]: the concentration for a half-maximal effect (EC50) in assay [1] amounted to 1.7 nM; in assay [2], 0.8 nM. On the same counts, the results for `CC(CCc1cc(F)c(F)cc1O)N[C@@H]1CCn2c(=O)[nH]c3cccc(c32)[C@H]1O` (mixture of isomers) [Example 11a, 6-{[3-(4,5-Difluoro-2-hydroxyphenyl)-1-methylpropyl]amino}-7-hydroxy-4,5,6,7-tetrahydroimidazo[4,5,1-jk][1]benzazepin-2(1H)-one] are 1.15 nM and 1.21 nM.

For the molecule `Cc1ccccc1CCC(C)N[C@@H]1CCn2c(=O)[nH]c3cccc(c32)[C@H]1O` (mixture of isomers) [Example 13b, 7-hydroxy-6-{[1-Methyl-3-(2-methylphenyl)propyl]amino}-4,5,6,7-tetrahydroimidazo[4,5,1-jk][1]benzazepin-2(1H)-one], the values for the EC50 in assay [1] and in assay [2] were 0.9 nM and 2 nM, respectively.

For `CC(CCc1ccc(OC(C)C)cc1)N[C@@H]1CCn2c(=O)[nH]c3cccc(c32)[C@H]1O` (mixture of isomers) [Example 16, 7-Hydroxy-6-{[3-(4-isopropoxyphenyl)-1-methylpropyl]amino}-4,5,6,7-tetrahydroimidazo[4,5,1-jk][1]benzazepin-2(1H)-one], the concentration for a half-maximal effect (EC50) in assay [1] was 5.5 nM; in assay [2], 17.3 nM. With `Cc1cccc(CCC(C)N[C@@H]2CCn3c(=O)[nH]c4cccc(c43)[C@H]2O)c1O` (mixture of isomers) [Example 17, 7-Hydroxy-6-{[3-(2-hydroxy-3-methylphenyl)-1-methylpropyl]amino}-4,5,6,7-tetrahydroimidazo[4,5,1-jk][1]benzazepin-2(1H)-one], the concentration for a half-maximal effect (EC50) in assay [1] was 3 nM; in assay [2] it was 3.3 nM. On the same counts, the results for `CC(CCc1ccc(C(F)(F)F)cc1)N[C@@H]1CCn2c(=O)[nH]c3cccc(c32)[C@H]1O` (mixture of isomers) [Example 18, 7-Hydroxy-6-({1-methyl-3-[4-(trifluoromethyl)phenyl]propyl}amino)-4,5,6,7-tetrahydroimidazo[4,5,1-jk][1]benzazepin-2(1H)-one] are 10.7 nM and 29.6 nM. For the molecule `COc1ccccc1CCC(C)N[C@@H]1CCn2c(=O)[nH]c3cccc(c32)[C@H]1O` (mixture of isomers) [Example 20, 7-Hydroxy-6-{[3-(2-methoxyphenyl)-1-methylpropyl]amino}-4,5,6,7-tetrahydroimidazo[4,5,1-jk][1]benzazepin-2(1H)-one], the half-maximal effective concentration (EC50) in assay [1] stood at 35.8 nM; in assay [2], 7.5 nM.

On to `COc1ccc(O)c(CCC(C)N[C@@H]2CCn3c(=O)[nH]c4cccc(c43)[C@H]2O)c1` (mixture of isomers) [Example 21, 7-Hydroxy-6-{[3-(2-hydroxy-5-methoxyphenyl)-1-methylpropyl]amino}-4,5,6,7-tetrahydroimidazo[4,5,1-jk][1]benzazepin-2(1H)-one], for which the EC50 was found to be 3.1 nM in assay [1] and 3.2 nM in assay [2]. `CC(CCc1cc(C#N)ccc1O)N[C@@H]1CCn2c(=O)[nH]c3cccc(c32)[C@H]1O` (mixture of isomers) [Example 22, 4-Hydroxy-3-(3-{[7-hydroxy-2-oxo-1,2,4,5,6,7-hexahydroimidazo[4,5,1-jk][1]benzazepin-6-yl]amino}butyl)benzonitrile]: the values for the EC50 in assay [1] and in assay [2] were 2.3 nM and 1.2 nM, respectively. With `CC(CCc1ccc(F)cc1)N[C@@H]1CCn2c(=O)[nH]c3cccc(c32)[C@H]1O` (mixture of isomers) [Example 23, 6-{[3-(4-Fluorophenyl)-1-methylpropyl]amino}-7-hydroxy-4,5,6,7-tetrahydroimidazo[4,5,1-jk][1]benzazepin-2(1H)-one], the concentration giving a half-maximal response (EC50) was determined as 10.5 nM in assay [1] and 15.8 nM in assay [2]. On to `CC(CCc1ccc(F)cc1O)N[C@@H]1CCn2c(=O)[nH]c3cccc(c32)[C@H]1O` (mixture of isomers) [Example 24, 6-{[3-(4-Fluoro-2-hydroxyphenyl)-1-methylpropyl]amino}-7-hydroxy-4,5,6,7-tetrahydroimidazo[4,5,1-jk][1]benzazepin-2(1H)-one], for which the EC50 in assay [1] worked out at 4.2 nM; in assay [2] it was 2.7 nM. In the case of `CC(CCc1cc(Cl)cc(Cl)c1O)N[C@@H]1CCn2c(=O)[nH]c3cccc(c32)[C@H]1O` (mixture of isomers) [Example 25, 6-{[3-(3,5-Dichloro-2-hydroxyphenyl)-1-methylpropyl]amino}-7-hydroxy-4,5,6,7-tetrahydroimidazo[4,5,1-jk][1]benzazepin-2(1H)-one], the EC50 was 2.7 nM in assay [1] and 2.2 nM in assay [2].

For the molecule `CC(CCc1ccc(Cl)cc1O)N[C@@H]1CCn2c(=O)[nH]c3cccc(c32)[C@H]1O` (mixture of isomers) [Example 26, 6-{[3-(4-Chloro-2-hydroxyphenyl)-1-methylpropyl]amino}-7-hydroxy-4,5,6,7-tetrahydroimidazo[4,5,1-jk][1]benzazepin-2(1H)-one], the values for the EC50 in assay [1] and in assay [2] were 1.7 nM and 3.1 nM, respectively. Consider `CC(CCc1cc(F)cc(Cl)c1O)N[C@@H]1CCn2c(=O)[nH]c3cccc(c32)[C@H]1O` (mixture of isomers) [Example 27, 6-{[3-(3-Chloro-5-fluoro-2-hydroxyphenyl)-1-methylpropyl]amino}-7-hydroxy-4,5,6,7-tetrahydroimidazo[4,5,1-jk][1]benzazepin-2(1H)-one], for which the EC50 in assay [1] worked out at 2.2 nM; in assay [2], 0.6 nM. With `CC(CCc1cccc(F)c1O)N[C@@H]1CCn2c(=O)[nH]c3cccc(c32)[C@H]1O` (mixture of isomers) [Example 28b, 6-{[3-(3-Fluoro-2-hydroxyphenyl)-1-methylpropyl]amino}-7-hydroxy-4,5,6,7-tetrahydroimidazo[4,5,1-jk][1]benzazepin-2(1H)-one], the concentration giving a half-maximal response (EC50) in assay [1] worked out at 80 nM; in assay [2] it was 55 nM. Turning to `CC(CCc1ccc(Cl)cc1Cl)N[C@@H]1CCn2c(=O)[nH]c3cccc(c32)[C@H]1O` (mixture of isomers) [Example 29, 6-{[3-(2,4-Dichlorophenyl)-1-methylpropyl]amino}-7-hydroxy-4,5,6,7-tetrahydroimidazo[4,5,1-jk][1]benzazepin-2(1H)-one], the results for the EC50 in assay [1] and in assay [2] were 6.4 nM and 6.9 nM, respectively. On the same counts, the results for `CC(CCc1cccc(C(F)(F)F)c1)N[C@@H]1CCn2c(=O)[nH]c3cccc(c32)[C@H]1O` (mixture of isomers) [Example 30, 7-Hydroxy-6-({1-methyl-3-[3-(trifluoromethyl)phenyl]propyl}amino)-4,5,6,7-tetrahydroimidazo[4,5,1-jk][1]benzazepin-2(1H)-one] are 5.5 nM and 37.1 nM.

Regarding `CC(CCc1cc(C(F)(F)F)ccc1O)N[C@@H]1CCn2c(=O)[nH]c3cccc(c32)[C@H]1O` (mixture of isomers) [Example 31, 7-Hydroxy-6-({3-[2-hydroxy-5-(trifluoromethyl)phenyl]-1-methylpropyl}amino)-4,5,6,7-tetrahydroimidazo[4,5,1-jk][1]benzazepin-2(1H)-one], the EC50 in assay [1] was determined as 8.1 nM; in assay [2], 27.2 nM. Turning to `CC(CCc1ccccc1NS(C)(=O)=O)N[C@@H]1CCn2c(=O)[nH]c3cccc(c32)[C@H]1O` (mixture of isomers) [Example 33, N-[2-(3-{[7-Hydroxy-2-oxo-1,2,4,5,6,7-hexahydroimidazo[4,5,1-jk][1]benzazepin-6-yl]amino}butyl)phenyl]methanesulfonamide], the EC50 in assay [1] stood at 11.9 nM.

`CC(CCc1ccc(NS(=O)(=O)c2ccccc2)cc1)NC1CCn2c(=O)[nH]c3cccc(c32)C1O` (single isomer, unassigned) [Example 67, N-{4-[3-{[7-Hydroxy-2-oxo-1,2,4,5,6,7-hexahydroimidazo[4,5,1-jk][1]benzazepin-6-yl]amino}butyl]phenyl}benzenesulfonamide]: in assay [2], the concentration for a half-maximal effect (EC50) is 156 nM.
